Laboratory results reported in PubChem BioAssay AID2060893 (Molecular Pharmacology Branch, DTP, NCI, 2025).
Values joined by “and” are separate entries in the source; they are usually repeats but may differ in a detail not shown here. Equal values may be shown once.

Test system: K86415-001-R-J1-PDC complex spheroids, viability
Experiment: Anticancer human tumor K86415-001-R-J1-PDC patient-derived lung adenocarcinoma cell line growth inhibition [RAS]
Details: for viability, T/C: stronger effect = lower value; active means viability on the fitted dose curve at most 10% of control; inactive means the rest
Excerpt: RAS pathway inhibitors in Combinations in Complex Spheroids
A high-throughput screen of multi-cell type tumor spheroids was designed to identify active combinations of RAS pathway inhibitors and targeted small molecules. Complex spheroids include a stromal component modeled by human endothelial cells (HUVEC) and fibroblasts modeled by human mesenchymal stem cells (MSCs). The concentration ranges selected for each drug and investigational agent were based upon clinically achievable concentrations if the clinical Cmax of the agent was known.
Compounds. The drugs and investigational agents: abemaciclib (NSC768073), cobimetinib (NSC768068), divarasib (GDC6063, NSC841802), docetaxel (NSC628503), GDC-1971 (RLY-1971, NSC841576), gemcitabine (NSC613327), inavolisib (NSC800729), ipatasertib (NSC767898), KB-0742 (NSC834161), MRTX-1133 (NSC836407), osimertinib (NSC779217), RMC-4630 (NSC839698), RMC-6236 (NSC851965), RMC-6291 (NSC852671), Ro-3306 (NSC812927), sapanisertib (NSC764658), SN-38 (NSC673596), staurosporine (NSC755774), SY5609 (NSC837396), and tovorafenib (DAY101, NSC766906), were obtained from the National Cancer Institute (NCI) Developmental Therapeutics Program Chemical Repository. The FDA-approved anticancer drug set is available from the NCI Developmental Therapeutics Program. […] The stock solutions were prepared in dimethyl sulfoxide (DMSO, Sigma-Aldrich, St. Louis, MO, cat. D2650) at 800-fold the tested concentration and stored at -70 degrees C prior to their use. All drugs and investigational agents were tested over a range starting from a high concentration at or near the clinical Cmax and decreasing in half-log increments. If the clinical Cmax for an agent had not been determined, the highest concentration tested was 10 microM.
Cell Culture. All cells were maintained in an incubator at 37 degrees C and 5% CO2 with 95% humidity. The PDC lines were cultured according to standard operating procedures established by the NCI PDMR. All PDCs were thawed and cultured in Matrigel-coated flasks prepared with a working solution of 1X Ham's F-12 nutrient mix, without supplementation (Invitrogen, Waltham, MA, cat. 11765054), 100 U/mL penicillin-streptomycin (Invitrogen, cat. 15140122), and 2.5% Matrigel (Corning Inc., Corning, NY, cat. 354248) for the first three passages. The 362531-283-R-J2-PDC and 782815-120-R-J1-PDC lines were cultured in 6C/Colon 1B media, which includes advanced DMEM/F-12 (Thermo Fisher Scientific, cat. 12634028), 10 mM HEPES (Thermo Fisher Scientific, cat. 15630080), 1X GlutaMAX supplement (Thermo Fisher Scientific, cat. 35050061), 0.1 mg/mL primocin (InvivoGen, San Diego, CA, cat. ant-pm-2), 10% defined fetal bovine serum, heat inactivated (HyClone Laboratories Inc., Logan, UT, cat. SH30070.03HI), 50% L-WRN conditioned media (ATCC, cat. CRL-3276), 1.25 mM N-Acetyl-L-cysteine (Sigma-Aldrich, cat. A9165), 10 mM nicotinamide (Sigma-Aldrich, cat. N0636), 1X B-27 supplement (Thermo Fisher Scientific, cat. 17504044), 1X N-2 supplement (Thermo Fisher Scientific, cat. 17502048), 50 ng/mL human EGF (Thermo Fisher Scientific, cat. PHG0311), and 10 microM Y-27632 dihydrochloride (Tocris Bioscience, cat. 1254). The K12877-001-R-J1-PDC line was cultured in 6I media, which includes all 6C/Colon 1B media plus 10 ng/mL human FGF-10 (PeproTech, cat. 100-26), 1 ng/mL human FGF-2 (PeproTech, cat. 100-18B), 1 µM prostaglandin E2 (Tocris Bioscience, cat. 2296), […] hydrocortisone (Sigma-Aldrich, cat. H4001), and […] bovine insulin (Sigma-Aldrich, cat. I6634). The K86415-001-R-J1-PDC line was cultured in 6D media, which includes all 6C/Colon 1B media components minus the L-WRN conditioned media. The 485176-168-R4-J1-PDC was cultured in PANC media, which includes all 6C/Colon 1B media plus 100 ng/mL human FGF-10 (PeproTech, cat. 100-26), 500 nM SB-431542 (Selleckchem, cat. S1067), and 10 nM gastrin (Tocris Bioscience, cat. 3006). […]
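Further: spheroids exposed to agents for seven days before readout.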

CC1(C)CCC(Nc2ncc(C(F)(F)F)c(-c3c[nH]c4c(P(C)(C)=O)c(C#N)ccc34)n2)CN1 (centres undefined) + CCn1c(-c2cccnc2C(C)OC)c2c3cc(ccc31)N1CCOC(CC(NC(=O)C(C(C)C)N(C)C(=O)C3(F)CCN(C(=O)C#CC(C)(C)N(C)C)CC3)C(=O)N3CCCC(N3)C(=O)OCC(C)(C)C2)C1
< 0.949 nM: IC50 (curve of first compound, second compound 0.000949 µM) | IC50 (curve of first compound, second compound 0.003 µM) | IC50 (curve of first compound, second compound 0.00949 µM) | IC50 (curve of first compound, second compound 0.03 µM) | IC50 (curve of first compound, second compound 0.0949 µM) | IC50 (curve of first compound, second compound 0.3 µM)
inactive: viability, T/C (second compound 0.000949 µM, first compound 0.000949 µM) 46.4% | viability, T/C (second compound 0.000949 µM, first compound 0.003 µM) 48.8% | viability, T/C (second compound 0.000949 µM, first compound 0.00949 µM) 35.2% | viability, T/C (second compound 0.000949 µM, first compound 0.03 µM) 57.9% | viability, T/C (second compound 0.000949 µM, first compound 0.0949 µM) 54.9% | viability, T/C (second compound 0.000949 µM, first compound 0.3 µM) 41.8% | viability, T/C (second compound 0.003 µM, first compound 0.000949 µM) 15.9% | viability, T/C (second compound 0.003 µM, first compound 0.003 µM) 14.2% | viability, T/C (second compound 0.003 µM, first compound 0.00949 µM) 17.2% | viability, T/C (second compound 0.003 µM, first compound 0.03 µM) 19.4% | viability, T/C (second compound 0.003 µM, first compound 0.0949 µM) 22.6% | viability, T/C (second compound 0.003 µM, first compound 0.3 µM) 20.4% | viability, T/C (second compound 0.00949 µM, first compound 0.000949 µM) 13.5% | viability, T/C (second compound 0.00949 µM, first compound 0.003 µM) 12.7% | viability, T/C (second compound 0.00949 µM, first compound 0.00949 µM) 16.5% | viability, T/C (second compound 0.00949 µM, first compound 0.03 µM) 20.3% | viability, T/C (second compound 0.00949 µM, first compound 0.0949 µM) 20.1% | viability, T/C (second compound 0.00949 µM, first compound 0.3 µM) 21.1% | viability, T/C (second compound 0.03 µM, first compound 0.000949 µM) 13.3% | viability, T/C (second compound 0.03 µM, first compound 0.003 µM) 16.3% | viability, T/C (second compound 0.03 µM, first compound 0.00949 µM) 17% | viability, T/C (second compound 0.03 µM, first compound 0.03 µM) 13.9% | viability, T/C (second compound 0.03 µM, first compound 0.0949 µM) 14.8% | viability, T/C (second compound 0.03 µM, first compound 0.3 µM) 21.1% | viability, T/C (second compound 0.0949 µM, first compound 0.000949 µM) 12.1% | viability, T/C (second compound 0.0949 µM, first compound 0.003 µM) 17.4% | viability, T/C (second compound 0.0949 µM, first compound 0.00949 µM) 17.6% | viability, T/C (second compound 0.0949 µM, first compound 0.03 µM) 19.6% | viability, T/C (second compound 0.0949 µM, first compound 0.0949 µM) 15.4% | viability, T/C (second compound 0.0949 µM, first compound 0.3 µM) 20.1% | viability, T/C (second compound 0.3 µM, first compound 0.000949 µM) 15.7% | viability, T/C (second compound 0.3 µM, first compound 0.003 µM) 15.3% | viability, T/C (second compound 0.3 µM, first compound 0.00949 µM) 16.7% | viability, T/C (second compound 0.3 µM, first compound 0.03 µM) 14.6% | viability, T/C (second compound 0.3 µM, first compound 0.0949 µM) 18.2% | viability, T/C (second compound 0.3 µM, first compound 0.3 µM) 20.9%

CC1(C)CCC(Nc2ncc(C(F)(F)F)c(-c3c[nH]c4c(P(C)(C)=O)c(C#N)ccc34)n2)CN1 (centres undefined)
> 300 nM: IC50 (curve of compound)
inactive: viability, T/C (compound 0.000949 µM) 110% and 123% (2×) and 109% | viability, T/C (compound 0.003 µM) 120% [middle of 4 runs] | viability, T/C (compound 0.00949 µM) 75.7% [middle of 4 runs] | viability, T/C (compound 0.03 µM) 58.1% [middle of 4 runs] | viability, T/C (compound 0.0949 µM) 60.8% [middle of 4 runs] | viability, T/C (compound 0.3 µM) 60.1% [middle of 4 runs]
